Measurements taken from ChEMBL document CHEMBL1697692, “Developing structure-activity relationships for the prediction of hepatotoxicity” (Chem Res Toxicol, 2010).
Where a name gives a salt, the structure may show the parent alone.

The compounds below were run on Hepatotoxicity (assay: Literature-mined public compounds from Greene et al multi-species hepatotoxicity modelling dataset).
CCOc1nc2cccc(C(=O)O)c2n1Cc1ccc(-c2ccccc2-c2nnn[nH]2)cc1 was tested, and the Hepatotoxicity was “WE: Weak evidence (<10 case reports) of human hepatotoxicity”.
For CCCc1nc2c(C)cc(-c3nc4ccccc4n3C)cc2n1Cc1ccc(-c2ccccc2C(=O)O)cc1, the Hepatotoxicity was “WE: Weak evidence (<10 case reports) of human hepatotoxicity”.
For CCCCC(=O)N(Cc1ccc(-c2ccccc2-c2nnn[nH]2)cc1)[C@H](C(=O)O)C(C)C, the Hepatotoxicity was “WE: Weak evidence (<10 case reports) of human hepatotoxicity”.
With CC(C)(C)NCC(O)c1cc(O)cc(O)c1.O=S(=O)(O)O (stereo unspecified) the Hepatotoxicity was “HH: Evidence of human hepatotoxicity”.
For COc1cccc(OC)c1C(=O)N[C@@H]1C(=O)N2[C@@H]1SC(C)(C)[C@@H]2C(=O)[O-].[Na+], the Hepatotoxicity was “HH: Evidence of human hepatotoxicity”.
In the case of CN[C@@H]1[C@H](O)[C@H](NC)[C@H]2O[C@@]3(O)C(=O)C[C@@H](C)O[C@H]3O[C@@H]2[C@H]1O.Cl, the Hepatotoxicity is reported as “HH: Evidence of human hepatotoxicity”.
CCO.C[C@H]1c2cccc(O)c2C(=O)C2=C(O)[C@]3(O)C(=O)C(C(N)=O)=C(O)[C@@H](N(C)C)[C@@H]3[C@@H](O)[C@@H]21.Cl.O was tested, and the Hepatotoxicity was “HH: Evidence of human hepatotoxicity”.
With Cl.NCCNCCNCCN the Hepatotoxicity was “HH: Evidence of human hepatotoxicity”.
In the case of CCN(CC)CCNC(=O)c1cc(Cl)c(N)cc1OC.Cl, the Hepatotoxicity is reported as “HH: Evidence of human hepatotoxicity”.
CNS(=O)(=O)Cc1ccc2[nH]cc(CCN(C)C)c2c1 was tested, and the Hepatotoxicity was “NE: No evidence of hepatotoxicity in any species”.
With CN(C)CCN(Cc1cccs1)c1ccccn1 the Hepatotoxicity was “HH: Evidence of human hepatotoxicity”.
With Cl.Cl.OCCN1CCN(CC/C=C2/c3ccccc3Sc3ccc(C(F)(F)F)cc32)CC1 the Hepatotoxicity was “NE: No evidence of hepatotoxicity in any species”.
CCCCCOC(=O)c1ccccc1C(=O)OCCCCC was tested, and the Hepatotoxicity was “AH: Evidence for animal hepatotoxicity but not tested in humans”.
With CC1=C(CC(=O)O)c2cc(F)ccc2/C1=C\c1ccc([S+](C)[O-])cc1 (stereo unspecified) the Hepatotoxicity was “HH: Evidence of human hepatotoxicity”.
In the case of CCOC(=O)[C@H](CCc1ccccc1)N[C@@H](C)C(=O)N1Cc2ccccc2C[C@H]1C(=O)O, the Hepatotoxicity is reported as “HH: Evidence of human hepatotoxicity”.
In the case of Cl.Nc1cc(Cl)cc(Cl)c1, the Hepatotoxicity is reported as “NE: No evidence of hepatotoxicity in any species”.
In the case of NC(CS/C(Cl)=C/Cl)C(=O)O (stereo unspecified), the Hepatotoxicity is reported as “AH: Evidence for animal hepatotoxicity but not tested in humans”.
With S=C=Nc1ccc2ccccc2c1 the Hepatotoxicity was “WE: Weak evidence (<10 case reports) of human hepatotoxicity”.
C=CC(O)CC#N (stereo unspecified) was tested, and the Hepatotoxicity was “NE: No evidence of hepatotoxicity in any species”.
Nc1cc(Cl)c(O)c(Cl)c1.Nc1ccc(O)cc1 was tested, and the Hepatotoxicity was “AH: Evidence for animal hepatotoxicity but not tested in humans”.
For CO/N=C(/C(=O)N[C@@H]1C(=O)N2C(C(=O)[O-])=C(CSc3nc(=O)c(O)nn3C)CS[C@H]12)c1csc(N)n1.[Na+], the Hepatotoxicity was “HH: Evidence of human hepatotoxicity”.
In the case of O=C1NC(=O)C(O)(O)C(=O)N1, the Hepatotoxicity is reported as “NE: No evidence of hepatotoxicity in any species”.
For Oc1ccccc1Br, the Hepatotoxicity was “AH: Evidence for animal hepatotoxicity but not tested in humans”.
In the case of O=C(O)COc1ccc(C(=O)c2cccs2)c(Cl)c1Cl, the Hepatotoxicity is reported as “HH: Evidence of human hepatotoxicity”.
With CCN(CC)Cc1cc(Nc2ccnc3cc(Cl)ccc23)ccc1O.Cl.Cl.Cl the Hepatotoxicity was “HH: Evidence of human hepatotoxicity”.
N#CC(C#N)=NNc1ccc(OC(F)(F)F)cc1 was tested, and the Hepatotoxicity was “AH: Evidence for animal hepatotoxicity but not tested in humans”.
O=C1NCN(c2ccccc2)C12CCN(CCCC(c1ccc(F)cc1)c1ccc(F)cc1)CC2 was tested, and the Hepatotoxicity was “HH: Evidence of human hepatotoxicity”.
For C[n+]1ccc(-c2cc[n+](C)cc2)cc1, the Hepatotoxicity was “AH: Evidence for animal hepatotoxicity but not tested in humans”.
For Nc1ccc(Cc2ccc(N)cc2)cc1, the Hepatotoxicity was “AH: Evidence for animal hepatotoxicity but not tested in humans”.
For C=C1CC[C@@]2(O)[C@H]3Cc4ccc(O)c5c4[C@@]2(CCN3CC2CC2)[C@H]1O5, the Hepatotoxicity was “NE: No evidence of hepatotoxicity in any species”.
CCSCC[C@H](N)C(=O)O (stereo in doubt; form 1) [ETHIONINE] was tested, and the Hepatotoxicity was “HH: Evidence of human hepatotoxicity”.
In the case of Cl[C@H]1[C@H](Cl)[C@@H](Cl)[C@@H](Cl)[C@H](Cl)[C@H]1Cl (stereo in doubt; form 1) [LINDANE], the Hepatotoxicity is reported as “NE: No evidence of hepatotoxicity in any species”.
C[C@H](CCC(=O)O)[C@H]1CC[C@H]2[C@@H]3[C@@H](O)C[C@@H]4C[C@H](O)CC[C@]4(C)[C@H]3CC[C@]12C (stereo in doubt; form 1) [URSODIOL] was tested, and the Hepatotoxicity was “HH: Evidence of human hepatotoxicity”.
For CCSCC[C@H](N)C(=O)O (stereo in doubt; form 2) [ETHIONINE], the Hepatotoxicity was “AH: Evidence for animal hepatotoxicity but not tested in humans”.
In the case of Cl[C@H]1[C@H](Cl)[C@@H](Cl)[C@@H](Cl)[C@H](Cl)[C@H]1Cl (stereo in doubt; form 2) [LINDANE], the Hepatotoxicity is reported as “HH: Evidence of human hepatotoxicity”.
In the case of C[C@H](CCC(=O)O)[C@H]1CC[C@H]2[C@@H]3[C@@H](O)C[C@@H]4C[C@H](O)CC[C@]4(C)[C@H]3CC[C@]12C (stereo in doubt; form 2) [URSODIOL], the Hepatotoxicity is reported as “WE: Weak evidence (<10 case reports) of human hepatotoxicity”.
In the case of ClCCCl [1,2-DICHLOROETHANE], the Hepatotoxicity is reported as “AH: Evidence for animal hepatotoxicity but not tested in humans”.
In the case of Clc1ccc(Cl)cc1 [1,4-DICHLOROBENZENE], the Hepatotoxicity is reported as “AH: Evidence for animal hepatotoxicity but not tested in humans”.
With S=C=Nc1cccc2ccccc12 [1-NAPHTHYLISOTHIOCYANATE] the Hepatotoxicity was “HH: Evidence of human hepatotoxicity”.
For CCCC(C)(F)F [2,2-DIFLUOROPENTANE], the Hepatotoxicity was “AH: Evidence for animal hepatotoxicity but not tested in humans”.
In the case of Clc1cc2c(cc1Cl)Oc1cc(Cl)c(Cl)cc1O2 [2,3,7,8-TETRACHLORODIBENZO-P-DIOXIN], the Hepatotoxicity is reported as “AH: Evidence for animal hepatotoxicity but not tested in humans”.
In the case of O=[N+]([O-])c1ccc(O)c([N+](=O)[O-])c1 [2,4-DINITROPHENOL], the Hepatotoxicity is reported as “AH: Evidence for animal hepatotoxicity but not tested in humans”.
For CC(=O)Nc1ccc2c(c1)Cc1ccccc1-2 [2-ACETYLAMINOFLUORENE], the Hepatotoxicity was “HH: Evidence of human hepatotoxicity”.
Cc1ccc2cc3c(ccc4ccccc43)c3c2c1CC3 [3-METHYLCHOLANTHRENE] was tested, and the Hepatotoxicity was “HH: Evidence of human hepatotoxicity”.
With Nc1nc(NC2CC2)c2ncn([C@H]3C=C[C@@H](CO)C3)c2n1 [ABACAVIR] the Hepatotoxicity was “HH: Evidence of human hepatotoxicity”.
For CC(=O)CC(c1ccc([N+](=O)[O-])cc1)c1c(O)c2ccccc2oc1=O (stereo unspecified) [ACENOCOUMAROL], the Hepatotoxicity was “HH: Evidence of human hepatotoxicity”.
With CC(=O)Nc1ccc(O)cc1 [ACETAMINOPHEN] the Hepatotoxicity was “HH: Evidence of human hepatotoxicity”.
CC(=O)Nc1nnc(S(N)(=O)=O)s1 [ACETAZOLAMIDE] was tested, and the Hepatotoxicity was “HH: Evidence of human hepatotoxicity”.
In the case of CC(=O)c1ccc(S(=O)(=O)NC(=O)NC2CCCCC2)cc1 [ACETOHEXAMIDE], the Hepatotoxicity is reported as “HH: Evidence of human hepatotoxicity”.
In the case of CC(=O)OCC[N+](C)(C)C.[Cl-] [ACETYLCHOLINE CHLORIDE], the Hepatotoxicity is reported as “NE: No evidence of hepatotoxicity in any species”.
With CC(=O)N[C@@H](CS)C(=O)O [ACETYLCYSTEINE] the Hepatotoxicity was “NE: No evidence of hepatotoxicity in any species”.
For COc1cc(C)c(/C=C/C(C)=C/C=C/C(C)=C/C(=O)O)c(C)c1C [ACITRETIN], the Hepatotoxicity was “HH: Evidence of human hepatotoxicity”.
With N[C@H](C(=O)O)[C@@H]1CC(Cl)=NO1 [ACIVICIN] the Hepatotoxicity was “NE: No evidence of hepatotoxicity in any species”.
In the case of CC[C@@]1(O)C[C@H](O[C@H]2C[C@H](N(C)C)[C@H](O[C@H]3C[C@H](O)[C@H](O[C@H]4CCC(=O)[C@H](C)O4)[C@H](C)O3)[C@H](C)O2)c2c(cc3c(c2O)C(=O)c2c(O)cccc2C3=O)[C@H]1C(=O)OC.Cl [ACLARUBICIN HYDROCHLORIDE], the Hepatotoxicity is reported as “WE: Weak evidence (<10 case reports) of human hepatotoxicity”.
Nc1ncnc2c1ncn2[C@@H]1O[C@H](CO)[C@@H](O)[C@H]1O [ADENOSINE] was tested, and the Hepatotoxicity was “NE: No evidence of hepatotoxicity in any species”.
For COc1cc2c(c3oc(=O)c4c(c13)CCC4=O)[C@@H]1C=CO[C@@H]1O2 [AFLATOXIN], the Hepatotoxicity was “HH: Evidence of human hepatotoxicity”.
For CCCSc1ccc2nc(NC(=O)OC)[nH]c2c1 [ALBENDAZOLE], the Hepatotoxicity was “HH: Evidence of human hepatotoxicity”.
Oc1ncnc2[nH]ncc12 [ALLOPURINOL] was tested, and the Hepatotoxicity was “HH: Evidence of human hepatotoxicity”.
C=CCO [ALLYL ALCOHOL] was tested, and the Hepatotoxicity was “HH: Evidence of human hepatotoxicity”.
With C=CCOC=O [ALLYL FORMATE] the Hepatotoxicity was “HH: Evidence of human hepatotoxicity”.
In the case of CCCN(CCC)C(=O)Cc1c(-c2ccc(Cl)cc2)nc2ccc(Cl)cn12 [ALPIDEM], the Hepatotoxicity is reported as “HH: Evidence of human hepatotoxicity”.
For Cl.NC12CC3CC(CC(C3)C1)C2 [AMANTADINE HYDROCHLORIDE], the Hepatotoxicity was “NE: No evidence of hepatotoxicity in any species”.
For Cl.N=C(N)NC(=O)c1nc(Cl)c(N)nc1N.O.O [AMILORIDE HYDROCHLORIDE], the Hepatotoxicity was “NE: No evidence of hepatotoxicity in any species”.
With Cl.O=C(O)CCCCCCNC1c2ccccc2CCc2ccccc21 [AMINEPTINE HYDROCHLORIDE] the Hepatotoxicity was “HH: Evidence of human hepatotoxicity”.
For Nc1ccc(C(=O)[O-])cc1.[K+] [AMINOBENZOATE POTASSIUM], the Hepatotoxicity was “NE: No evidence of hepatotoxicity in any species”.
In the case of NCCCCCC(=O)O [AMINOCAPROIC ACID], the Hepatotoxicity is reported as “NE: No evidence of hepatotoxicity in any species”.
With CCC1(c2ccc(N)cc2)CCC(=O)NC1=O (stereo unspecified) [AMINOGLUTETHIMIDE] the Hepatotoxicity was “NE: No evidence of hepatotoxicity in any species”.
Nc1ccc(C(=O)O)c(O)c1 [AMINOSALICYLIC ACID] was tested, and the Hepatotoxicity was “HH: Evidence of human hepatotoxicity”.
For CCCCc1oc2ccccc2c1C(=O)c1cc(I)c(OCCN(CC)CC)c(I)c1 [AMIODARONE], the Hepatotoxicity was “HH: Evidence of human hepatotoxicity”.
For CN(C)CCC=C1c2ccccc2CCc2ccccc21.Cl [AMITRIPTYLINE HYDROCHLORIDE], the Hepatotoxicity was “WE: Weak evidence (<10 case reports) of human hepatotoxicity”.
With Cl.N [AMMONIUM CHLORIDE] the Hepatotoxicity was “NE: No evidence of hepatotoxicity in any species”.
